System: Human non-small-cell lung cancer cell line A549
Assay: Combination use of E7080 and docetaxel in subcutaneous transplanted models (in vivo) of A549
Details: alone, A549 subcutaneous transplant, nude mouse
Protocol: Human non-small-cell lung cancer cell line A549 (purchased from Dainippon Sumitomo Pharma Co., Ltd) was cultured in RPMI1640 (containing 10% FBS) in a 5% carbon dioxide gas incubator at 37° C. to about 80% confluence, and then the cells were treated with trypsin-EDTA and then collected. A 1×10^8 cells/mL suspension was prepared with a phosphate buffer, which was further added with an equivalent amount of matrigel matrix to give a 5×10^7 cells/mL suspension, and each 0.1 mL of the resulting cell suspension was subcutaneously transplanted to a nude mouse at the side of its body. Fourteen days after the transplantation, 4-(3-chloro-4-(cyclopropylaminocarbonyl)aminophenoxy)-7-methoxy-6-quinolinecarboxamide (hereinafter, also referred to as “E7080”) was orally administered for 10 or 30 mg/kg, once a day for four weeks, while 15 mg/kg of docetaxel was intravenously administered alone or in combination every four days for three times. The major and minor axes of tumors were measured with Digimatic caliper (Mitsutoyo Corporation), and tumor volumes and relative tumor volumes were calculated according to the following formulae:
Tumor Volume (TV)=Major axis of tumor (mm)×(Minor axis of tumor)^2 (mm^2)/2
Relative Tumor Volume (RTV)=Tumor volume on measurement day/Tumor volume on the first administration day.

Row | SMILES | Relative tumor volume on Day 29, Average ± standard deviation (Docetaxel 15 mg/kg intravenously every four days for three times) | Relative tumor volume on Day 29, Average ± standard deviation (E7080 10 mg/kg orally once a day for four weeks) | Relative tumor volume on Day 29, Average ± standard deviation (E7080 30 mg/kg orally once a day for four weeks)
1 | CC(=O)O[C@@]12CO[C@@H]1C[C@H](O)[C@@]1(C)C(=O)[C@H](O)C3=C(C)[C@@H](OC(=O)[C@H](O)[C@@H](NC(=O)OC(C)(C)C)c4ccccc4)C[C@@](O)([C@@H](OC(=O)c4ccccc4)[C@H]21)C3(C)C [Docetaxel, docetaxel, reference compound] | 1.48 ± 0.29 |  | 
2 | COc1cc2nccc(Oc3ccc(NC(=O)NC4CC4)c(Cl)c3)c2cc1C(N)=O [E7080, 4-(3-chloro-4-(cyclopropylaminocarbonyl)aminophenoxy)-7-methoxy-6-quinolinecarboxamide] |  | 1.47 ± 0.16 | 1.14 ± 0.30
